Entries after “also recorded” stand apart in the source; their conditions may differ.
Assays:
tau+ NFTs [1] = test: Tissue binding assay (fluorescence), NFTs in human AD tissue sections; design: key to NFTs (staining): −: No staining; +: weak staining; ++: moderate staining; +++: intense staining; conditions: for NFTs (staining): Table 2, human AD tissue
Aβ+ plaques [2] = test: Tissue binding assay (fluorescence), plaques in human AD tissue sections; design: key to Plaques (staining): −: No staining; +: weak staining; ++: moderate staining; +++: intense staining; conditions: for Plaques (staining): Table 2, 100 μM, human AD tissue; for Binding to plaques (in words): high test concentration, AD tissue
Experimental: (§1) Human brain tissue samples from the entorhinal cortex of patients with Alzheimer's disease (AD) and healthy controls were obtained from Tissue Solutions (Tissue Solutions Ltd, Glasgow, UK). Tissue samples were collected after informed written consent, and specimens were dissected at the tissue bank and snap-frozen for cryopreservation at a time interval of between 3 and 18 h after death. The frozen tissue was embedded in TissueTek® (VWR) and sectioned using a Microm HM560 cryostat (Thermo Scientific). Serial 12 μm sections were mounted onto SuperFrost®+ glass slides (VWR) and stored a −70° C.
(§2) The binding of compounds to tau+NFTs and Aβ+ plaques in human AD tissue were evaluated based on fluorescence.
(§3) Briefly, tissue sections were defrosted and fixed in ice-cold 70% ethanol. All tissue sections were rinsed with PBS after fixation and between all subsequent incubation steps. To quench autofluorescence, tissue sections were incubated first with 0.25% KMnO4 (Sigma-Aldrich) in PBS for 12 min, and then with 0.1% […]/0.1% oxalic acid (both reagents from Sigma-Aldrich) in PBS for 1 min. The tissue sections were blocked with 2% BSA in PBS for 10 min, and then incubated with the test compounds at 100 μM concentration for 1 h at RT. […] Finally the tissue sections were rinsed in PBS, and mounted in SlowFade® mounting media (Invitrogen). Images of labelled tissue sections were captured using a Nikon digital camera connected to a Leica microscope and using the NIS Elements D software (Nikon). Images were further processed with the Photoshop® software (Adobe).

tau+ NFTs [3] = test: Tissue binding assay (fluorescence), NFTs in human AD tissue sections; design: key to NFTs (staining): −: No staining; +: weak staining; ++: moderate staining; +++: intense staining; conditions: for NFTs (staining): Table 2, 100 μM, human AD tissue; for Binding to NFTs (in words): high test concentration, AD tissue
Experimental: as §1, §2, §3

Aβ+ plaques [4] = test: Tissue binding assay (fluorescence), plaques in human AD tissue sections; design: key to Plaques (staining): −: No staining; +: weak staining; ++: moderate staining; +++: intense staining; conditions: for Plaques (staining): Table 2, human AD tissue
NFTs and plaques = conditions: literature reports; cited from earlier work
[5] = literature reports; cited from earlier work
[6] = Protein binding assay, rat brain homogenates (rapid equilibrium dialysis); type: in vitro ADME; conditions: rat brain homogenate, % bound, criterion <99%
Experimental: (§4) The protein binding assays provide an estimate of free (unbound) fraction of the compound in the blood or brain in vivo. […] The desirable criterion for this assay is <99% of test compound bound.
(§5) Test compounds were first dissolved in DMSO to a concentration of 50 μM. This was followed by incubation in samples of human plasma and rat brain homogenates (final test concentration 1 μM). Binding of compounds to proteins was determined in the samples by rapid equilibrium dialysis after 5 and 30 min of incubation.

[7] = Protein binding assay, human plasma (rapid equilibrium dialysis); type: in vitro ADME; conditions: % bound, criterion <99%
Experimental: as §4, §5

rat liver microsomes = test: Liver microsome stability assay, rat; type: in vitro ADME; conditions: 1 μM, 37° C., parent compound remaining, criterion >50%
Experimental: (§6) The liver microsome stability assay provides an estimate of compound stability and rate of metabolism in vivo. The desirable criterion for this assay is >50% parent compound after 30 min.
(§7) A 1 μM compound solution was incubated with rat or human liver microsomes (20 mg/ml) at 37° C. and the amount of parent compound remaining following the incubation was determined after 5 and 30 min of incubation using LC-MS.

human liver microsomes = test: Liver microsome stability assay, human; type: in vitro ADME; conditions: 1 μM, 37° C., parent compound remaining, criterion >50%
Experimental: as §6, §7

[8] = PAMPA (parallel artificial membrane permeability assay); type: in vitro ADME; conditions: 10 μM, 5 h at RT; criterion >−6
Experimental: The PAMPA assay is used to determine how well a compound crosses a cell membrane by measuring its passage through a phosphotidyl choline barrier. A permeability coefficient >−6 indicates high permeability across lipid membranes and is indicative of a compounds ability to cross the blood brain barrier.
A 10 μM solution was incubated on a PDVF membrane coated with a 2% phoshotidyl choline solution for 5 h at RT. Membrane penetration was measured using LC-MS.

[9] = system: tau aggregates over Aβ1-42 amyloid; conditions: in vitro, Kudo et al. 2005; cited from earlier work
[10] = In vivo cold bio-distribution in rat (brain uptake, LC-MS)
Experimental: All animal studies were in compliance with local rules and regulations. Test compounds were administered by intravenous (i.v) injection through the tail vein of naïve male Wistar rats (50 μg test compound/rat). The animals were sacrificed by dislocation of the neck at 2, 10, 30, 60 min post-injection (p.i). The brain and plasma were collected from each animal. The concentration of test compound was measured in the plasma and brain homogenates using LS-MS, and calculated as % compound/g (% ID/g).

[11] = lower test concentrations, AD tissue

Structure (SMILES)	NFTs (staining) (tau+ NFTs [1]; 1 μM)	NFTs (staining) (tau+ NFTs [1]; 10 μM)	Plaques (staining) (Aβ+ plaques [2])	Binding to plaques (in words) (Aβ+ plaques [2])	NFTs (staining) (tau+ NFTs [3])	Binding to NFTs (in words) (tau+ NFTs [3])	Plaques (staining) (Aβ+ plaques [4]; 1 μM)	Plaques (staining) (Aβ+ plaques [4]; 10 μM)	Reported binding to NFTs / plaques (in words) (NFTs and plaques)	Reported brain uptake in vivo (in words) [5]	fraction unbound at 1 μM [6]	fraction unbound at 1 μM [7]	Liver stability Rat (% PCP) 5 min (rat liver microsomes)	Liver stability Rat (% PCP) 30 min (rat liver microsomes)	Liver stability Human (% PCP) 5 min (human liver microsomes)	Liver stability Human (% PCP) 30 min (human liver microsomes)	PAMPA Log Pe [8]	Selectivity for tau aggregates over Aβ1-42 amyloid [9]	other results
CC(=C(C#N)C#N)c1ccc2cc(N(C)CCF)ccc2c1 [FDDNP, 2-(1-(2-(N-(2-fluoroethy)-N-methylamino)-naphthalene-6-yl)-ethylidende)-malononitrile, reference compound]	+	++	+++	detected to both NFTs and plaques	+++	detected to both NFTs and plaques	+	++	binds to both NFTs and plaques										
[11CH3]Nc1ccc(-c2nc3ccc(O)cc3s2)cc1 [PiB, Pittsburgh compound B, reference compound]	−	+	+++	detected to both NFTs and plaques	+++	detected to both NFTs and plaques	++	++	bind with a preference to Aβ+ plaques	high brain uptake in vivo									Binding to plaques (in words) (Aβ+ plaques [4]; [11]): only bound to plaques
CC(C)NC(=O)c1nn(-c2ccc(Cl)cc2)c(=O)c2c(N)scc12 [ATPZ, reference compound]	+	++	+		+++		−	−		high brain uptake in vivo	0.0906	0.0098	97.06 % PCP	70.19 % PCP	98.9 % PCP	68.29 % PCP	−5.24		
Nc1ccc(-c2ccc3ccccc3n2)cc1 [BF-170]																		threefold	
CC(C)NC(=O)c1nn(-c2ccc(OCCF)cc2)c(=O)c2c(N)scc12 [Compound 38]	+	++	++	binds to both NFTs (A) and plaques (B); also recorded: bind to both NFTs and plaques	+++	binds to both NFTs (A) and plaques (B); also recorded: bind to both NFTs and plaques	−	+			0.428	0.0642	81.7 % PCP	56.4 % PCP	87.2 % PCP	74.4 % PCP	−5.02		Binding preference for NFTs (in words) (tau+ NFTs [1]; [11]): binds preferentially to NFTs; also recorded: bind with a preference for NFTs; tissue uptake at 2 min ([10]; male, Wistar, rat, brain, iv, 50 μg/rat, 2 min p.i.): > 0.2 %ID/g; tissue uptake at 10 min ([10]; male, Wistar, rat, brain, iv, 50 μg/rat, 10 min p.i.): 0.081 %ID/g; tissue uptake at 30 min ([10]; male, Wistar, rat, brain, iv, 50 μg/rat, 30 min p.i.): 0.021 %ID/g; tissue uptake at 60 min ([10]; male, Wistar, rat, brain, iv, 50 μg/rat, 60 min p.i.): 0.011 %ID/g; Clearance ratio 2:30 min ([10]; rat brain, 2 min vs 30 min p.i.): 13.3; Brain uptake and clearance (in words) ([10]; rat, from clearance ratio): rapid brain uptake followed by rapid clearance; Brain uptake % ID/g p.i ([10]; rat, i.v., 2 min p.i.): 0.28 % ID/g
CNc1ccc(-c2ccc3ccccc3n2)cc1 [BF-158]																		threefold	
